In brackets after ≈: the same amount, converted by molar mass.
Test system: Mycobacterium tuberculosis H37Rv
Experiment: Mycobacterium tuberculosis H37Rv Inhibition Assay (Whole Cell Assay)
Type: cell-based
Conditions: ATCC 25618 / H37Rv, H37Rv strain (ATCC25618), Middlebrook 7H9, six days at 37° C., resazurin fluorescence after 48 hours

SMILES | MIC
CCc1ccc([C@H]2C[C@@H](C(F)(F)F)n3ncc(C(=O)NCc4ccc(OC)c(OC)c4)c3N2)cc1 (relative stereo) [Example 47, Cis-N-(3,4-dimethoxybenzyl)-5-(4-ethylphenyl)-7-(trifluoromethyl)-4,5,6,7-tetrahydropyrazolo[1,5-a]pyrimidine-3-carboxamide] | > 2 µM
CCc1ccc([C@H]2C[C@@H](C(F)(F)F)n3ncc(C(=O)NCc4ccncc4)c3N2)cc1 (relative stereo) [Example 48, Cis-5-(4-ethylphenyl)-N-(pyridin-4-ylmethyl)-7-(trifluoromethyl)-4,5,6,7-tetrahydropyrazolo[1,5-a]pyrimidine-3-carboxamide] | > 2 µM
Cc1ccc([C@H]2C[C@@H](C(F)(F)F)n3ncc(C(=O)NCc4ccc(N(C)C)cc4)c3N2)cc1 (relative stereo) [Example 49, Cis-N-(4-(dimethylamino)benzyl)-5-(p-tolyl)-7-(trifluoromethyl)-4,5,6,7-tetrahydropyrazolo[1,5-a]pyrimidine-3-carboxamide] | > 2 µM
Cc1ccc([C@H]2C[C@@H](C(F)(F)F)n3ncc(C(=O)NCc4ccc5c(c4)OCCO5)c3N2)cc1 (relative stereo) [Example 50, Cis-N-((2,3-dihydrobenzo[b][1,4]dioxin-6-yl)methyl)-5-(p-tolyl)-7-(trifluoromethyl)-4,5,6,7-tetrahydropyrazolo[1,5-a]pyrimidine-3-carboxamide] | > 2 µM
CCc1ccc([C@H]2C[C@@H](C(F)(F)F)n3ncc(C(=O)NCc4ccc(F)cc4)c3N2)cc1 (relative stereo) [Example 58, Cis-5-(4-ethylphenyl)-N-(4-fluorobenzyl)-7-(trifluoromethyl)-4,5,6,7-tetrahydropyrazolo[1,5-a]pyrimidine-3-carboxamide] | ≤ 1 µM
CCc1ccc([C@H]2C[C@@H](C(F)(F)F)n3ncc(C(=O)NCc4ccc(F)cc4F)c3N2)cc1 (relative stereo) [Example 59, Cis-N-[(2,4-difluorophenyl)methyl]-5-(4-ethylphenyl)-7-(trifluoromethyl)-4,5,6,7-tetrahydropyrazolo[1,5-a]pyrimidine-3-carboxamide] | ≤ 1 µM
CCc1ccc([C@H]2C[C@@H](C(F)(F)F)n3ncc(C(=O)NCc4cccc(F)c4)c3N2)cc1 (relative stereo) [Example 60, Cis-5-(4-ethylphenyl)-N-(3-fluorobenzyl)-7-(trifluoromethyl)-4,5,6,7-tetrahydropyrazolo[1,5-a]pyrimidine-3-carboxamide] | ≤ 1 µM
CCc1ccc([C@H]2C[C@@H](C(F)(F)F)n3ncc(C(=O)NCc4ccccc4F)c3N2)cc1 (relative stereo) [Example 62, Cis-5-(4-ethylphenyl)-N-(2-fluorobenzyl)-7-(trifluoromethyl)-4,5,6,7-tetrahydropyrazolo[1,5-a]pyrimidine-3-carboxamide] | ≤ 1 µM
CCc1ccc([C@H]2C[C@@H](C(F)(F)F)n3ncc(C(=O)NCc4ccc(F)c(C)c4)c3N2)cc1 (relative stereo) [Example 63, Cis-5-(4-ethylphenyl)-N-(4-fluoro-3-methylbenzyl)-7-(trifluoromethyl)-4,5,6,7-tetrahydropyrazolo[1,5-a]pyrimidine-3-carboxamide] | ≤ 1 µM
CCc1ccc([C@H]2C[C@@H](C(F)(F)F)n3ncc(C(=O)NCc4ccc(C)c(F)c4)c3N2)cc1 (relative stereo) [Example 64, Cis-5-(4-ethylphenyl)-N-(3-fluoro-4-methylbenzyl)-7-(trifluoromethyl)-4,5,6,7-tetrahydropyrazolo[1,5-a]pyrimidine-3-carboxamide] | ≤ 1 µM
CCc1ccc([C@H]2C[C@@H](C(F)(F)F)n3ncc(C(=O)NCc4ccc(C)c(C)c4)c3N2)cc1 (relative stereo) [Example 65, Cis-N-(3,4-dimethylbenzyl)-5-(4-ethylphenyl)-7-(trifluoromethyl)-4,5,6,7-tetrahydropyrazolo[1,5-a]pyrimidine-3-carboxamide] | ≤ 1 µM
CCc1ccc([C@H]2C[C@@H](C(C)C)n3ncc(C(=O)NCc4ccc(C)cc4)c3N2)cc1 (relative stereo) [Example 66, Cis-5-(4-ethylphenyl)-7-isopropyl-N-(4-methylbenzyl)-4,5,6,7-tetrahydropyrazolo[1,5-a]pyrimidine-3-carboxamide] | ≤ 1 µM
CCc1ccc([C@H]2C[C@@H](C(F)(F)F)n3ncc(C(=O)NCc4ccc(Cl)cc4)c3N2)cc1 (relative stereo) [Example 67, Cis-N-(4-chlorobenzyl)-5-(4-ethylphenyl)-7-(trifluoromethyl)-4,5,6,7-tetrahydropyrazolo[1,5-a]pyrimidine-3-carboxamide] | ≤ 1 µM
CCc1ccc([C@H]2C[C@@H](C(C)(F)F)n3ncc(C(=O)NCc4ccc(C)cc4)c3N2)cc1 (relative stereo) [Example 68, Cis-7-(1,1-difluoroethyl)-5-(4-ethylphenyl)-N-(4-methylbenzyl)-4,5,6,7-tetrahydropyrazolo[1,5-a]pyrimidine-3-carboxamide] | ≤ 1 µM
CCc1ccc([C@H]2C[C@@H](C(F)(F)F)n3ncc(C(=O)NCc4ccc(F)cn4)c3N2)cc1 (relative stereo) [Example 69, Cis-5-(4-ethylphenyl)-N-((5-fluoropyridin-2-yl)methyl)-7-(trifluoromethyl)-4,5,6,7-tetrahydropyrazolo[1,5-a]pyrimidine-3-carboxamide] | ≤ 1 µM
CCc1ccc([C@H]2C[C@@H](C(F)(F)F)n3ncc(C(=O)NCc4ncc(F)cc4F)c3N2)cc1 (relative stereo) [Example 70, Cis N-((3,5-difluoropyridin-2-yl)methyl)-5-(4-ethylphenyl)-7-(trifluoromethyl)-4,5,6,7-tetrahydropyrazolo[1,5-a]pyrimidine-3-carboxamide] | ≤ 1 µM
CCc1ccc([C@H]2C[C@@H](C(C)C)n3ncc(C(=O)NCc4ccc(OC)cc4)c3N2)cc1 (relative stereo) [Example 71, Cis-5-(4-ethylphenyl)-7-isopropyl-N-(4-methoxybenzyl)-4,5,6,7-tetrahydropyrazolo[1,5-a]pyrimidine-3-carboxamide] | ≤ 1 µM
CCc1ccc([C@H]2C[C@@H](C(F)(F)F)n3ncc(C(=O)NCc4ccc(C)n4C)c3N2)cc1 (relative stereo) [Example 72, Cis-N-((1,5-dimethyl-1H-pyrrol-2-yl)methyl)-5-(4-ethylphenyl)-7-(trifluoromethyl)-4,5,6,7-tetrahydropyrazolo[1,5-a]pyrimidine-3-carboxamide] | ≤ 1 µM
CCc1ccc([C@H]2C[C@@H](C(F)(F)F)n3ncc(C(=O)NCc4ccccc4Cl)c3N2)cc1 (relative stereo) [Example 73, Cis-N-(2-chlorobenzyl)-5-(4-ethylphenyl)-7-(trifluoromethyl)-4,5,6,7-tetrahydropyrazolo[1,5-a]pyrimidine-3-carboxamide] | 1 to 2 µM (≈ 0.463 to 0.926 µg/mL)
CCc1ccc([C@H]2C[C@@H](C(F)(F)F)n3ncc(C(=O)NCc4ccc(OC)nc4)c3N2)cc1 (relative stereo) [Example 74, Cis5-(4-ethylphenyl)-N-((6-methoxypyridin-3-yl)methyl)-7-(trifluoromethyl)-4,5,6,7-tetrahydropyrazolo[1,5-a]pyrimidine-3-carboxamide] | 1 to 2 µM (≈ 0.459 to 0.919 µg/mL)
CCc1ccc([C@H]2C[C@@H](C(F)(F)F)n3ncc(C(=O)NCc4ccc(Cl)cn4)c3N2)cc1 (relative stereo) [Example 75, Cis-N-((5-chloropyridin-2-yl)methyl)-5-(4-ethylphenyl)-7-(trifluoromethyl)-4,5,6,7-tetrahydropyrazolo[1,5-a]pyrimidine-3-carboxamide] | 1 to 2 µM (≈ 0.464 to 0.928 µg/mL)
CCc1ccc([C@H]2C[C@@H](C(F)(F)F)n3ncc(C(=O)NCc4ccc(Cl)nc4)c3N2)cc1 (relative stereo) [Example 76, Cis-N-((6-chloropyridin-3-yl)methyl)-5-(4-ethylphenyl)-7-(trifluoromethyl)-4,5,6,7-tetrahydropyrazolo[1,5-a]pyrimidine-3-carboxamide] | 1 to 2 µM (≈ 0.464 to 0.928 µg/mL)
CCc1ccc([C@H]2C[C@@H](C(F)(F)F)n3ncc(C(=O)NCc4ccc(F)c(C)n4)c3N2)cc1 (relative stereo) [Example 77, Cis-5-(4-ethylphenyl)-N-((5-fluoro-6-methylpyridin-2-yl)methyl)-7-(trifluoromethyl)-4,5,6,7-tetrahydropyrazolo[1,5-a]pyrimidine-3-carboxamide] | 1 to 2 µM (≈ 0.461 to 0.923 µg/mL)
CCc1ccc([C@H]2C[C@@H](C(F)(F)F)n3ncc(C(=O)NCc4ccc(OC)cc4)c3N2)cc1 (single isomer, unassigned) [Example 1a] | ≤ 1 µM
CCc1ccc([C@@H]2C[C@H](C(F)(F)F)n3ncc(C(=O)NCc4ccc(OC)cc4)c3N2)cc1 (single isomer, unassigned) [Example 1b] | > 2 µM
CCc1ccc([C@H]2C[C@@H](C(F)(F)F)n3ncc(C(=O)NCc4ccco4)c3N2)cc1 (single isomer, unassigned) [Example 7a] | ≤ 1 µM
CCc1ccc([C@@H]2C[C@H](C(F)(F)F)n3ncc(C(=O)NCc4ccco4)c3N2)cc1 (single isomer, unassigned) [Example 7b] | > 2 µM
O=C(NCc1ccco1)c1cnn2c1NC(c1ccc(Br)cc1)CC2C(F)(F)F (stereo not drawn) [57′, 5-(4-bromophenyl)-N-(furan-2-ylmethyl)-7-(trifluoromethyl)-4,5,6,7-tetrahydropyrazolo[1,5-a]pyrimidine-3-carboxamide, reference compound] | > 2 µM
CCc1ccc(C2CC(C(F)(F)F)n3ncc(C(=O)NCc4ccc5c(c4)OCO5)c3N2)cc1 (stereo not drawn) [Example 37, N-(benzo[d][1,3]dioxol-5-ylmethyl)-5-(4-ethylphenyl)-7-(trifluoromethyl)-4,5,6,7-tetrahydropyrazolo[1,5-a]pyrimidine-3-carboxamide] | ≤ 1 µM
Cc1ccc(C2CC(C(F)(F)F)n3ncc(C(=O)NCc4ccc5c(c4)OCO5)c3N2)cc1 (stereo not drawn) [Example 38, N-(benzo[d][1,3]dioxol-5-ylmethyl)-5-(p-tolyl)-7-(trifluoromethyl)-4,5,6,7-tetrahydropyrazolo[1,5-a]pyrimidine-3-carboxamide] | ≤ 1 µM
